Some test systems named below: A498 renal; COLO 205 colon; HCC-2998 colon; RPMI-8226 leukemia; SF-539 CNS; UACC-257 melanoma; MALME-3M melanoma; BT-549 breast; HS 578T breast.
Holding throughout (experiment): NCI tumour cell line growth inhibition, 48 h

The source of these data is PubChem BioAssay (NCI).

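The compound was tested at five concentrations on cells cultured in 96-well plates, with a 48-hour exposure period. GI50 marks 50% less growth. The concentration for full growth arrest is given as TGI.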

Take `CCN1CCC(O)(c2ccc(Cl)cc2)C(C(=O)c2ccc(Cl)cc2)C1` (stereo unspecified): the TGI is over 100 µM with A498 renal; over 100 µM in the experiment with COLO 205 colon; over 100 µM in the experiment with HCC-2998 colon; 64.2 µM in the experiment with RPMI-8226 leukemia; over 100 µM in the experiment with SF-539 CNS; over 100 µM in the experiment on UACC-257 melanoma.

Turning to `CCOC(=O)c1[nH]c(COC(C)=O)c2c1CCCCCCCCCC2`, the TGI in the experiment on A498 renal, in the experiment with COLO 205 colon, in the experiment on HCC-2998 colon, in the experiment with MALME-3M melanoma, in the experiment with RPMI-8226 leukemia and in the experiment with SF-539 CNS was over 100 µM in each case. This compound also had a TGI in the experiment with UACC-257 melanoma of over 100 µM.

Regarding `CCN(CC)c1ccc(N=Nc2ccc(-c3nc4ccc[n+](C)c4o3)cc2)cc1`, the TGI with A498 renal was 35.9 µM; with COLO 205 colon, 5.41 µM; in the experiment on MALME-3M melanoma, 4.31 µM; in the experiment on RPMI-8226 leukemia, 7.38 µM; with SF-539 CNS, 20.3 µM; in the experiment on UACC-257 melanoma, 20.2 µM.

Consider `Cn1cc2ccccc2c1-c1nc(F)nc(OCC(=O)[C@H]2CCC3[C@@H]4CCC5=CC(=O)CC[C@]5(C)C4[C@@H](O)C[C@@]32C)n1` (stereo partly specified), for which the TGI in the experiment with A498 renal was over 54 µM; in the experiment on COLO 205 colon it was 40.1 µM; in the experiment with HCC-2998 colon, 48.4 µM; in the experiment on MALME-3M melanoma it was 33.8 µM; in the experiment on RPMI-8226 leukemia, 21.3 µM; in the experiment with SF-539 CNS, 35.1 µM. For the same compound, in the experiment on UACC-257 melanoma, the TGI is 37.3 µM.

On to `CC(C)=CC1=C2C3=C(C(=O)C4(O)Oc5c(C)c6c7c(c5OC24C)[C@@H](C)CC[C@@H]7[C@@H](C)C[C@H]6C=C(C)C)C(C)CCC3C(C)C1` (stereo partly specified), for which the GI50 in the experiment with BT-549 breast, in the experiment on COLO 205 colon, in the experiment on HCC-2998 colon, in the experiment with HS 578T breast, with MALME-3M melanoma and in the experiment with RPMI-8226 leukemia was over 100 µM each time. Besides, the GI50 with SF-539 CNS and in the experiment on UACC-257 melanoma was over 100 µM throughout. The TGI with BT-549 breast, in the experiment on COLO 205 colon, in the experiment on HCC-2998 colon, in the experiment on HS 578T breast, in the experiment on MALME-3M melanoma and in the experiment with RPMI-8226 leukemia was over 100 µM in each case. The TGI in the experiment with SF-539 CNS and with UACC-257 melanoma was over 100 µM in each case.

As to `Cc1cc2c([nH]c3ccccc32)c2c1OC(C)(C)C1C3CC(C)(C)Oc4c(C)cc5c6ccccc6n(c5c43)C21` (stereo unspecified), the TGI in the experiment on A498 renal, in the experiment on COLO 205 colon, in the experiment on HCC-2998 colon, in the experiment on MALME-3M melanoma, with RPMI-8226 leukemia and with SF-539 CNS was over 100 µM throughout. The same compound had a TGI in the experiment on UACC-257 melanoma of over 100 µM.

In the case of `N#CC1CCCCCCCCCCC(=O)N(CCCl)C1=O` (stereo unspecified), the TGI with A498 renal, in the experiment on COLO 205 colon, in the experiment on HCC-2998 colon, with MALME-3M melanoma, in the experiment with RPMI-8226 leukemia and in the experiment with SF-539 CNS was over 100 µM each time. Besides, the TGI with UACC-257 melanoma was over 100 µM.

As to `CN(C)CC/[N+]([O-])=C(/c1ccccc1)C12CC3CC(CC(C3)C1)C2`, the TGI in the experiment on A498 renal was 32.6 µM; with COLO 205 colon, 30.3 µM; in the experiment with HCC-2998 colon it was 37.6 µM; with MALME-3M melanoma, 55.2 µM; in the experiment with RPMI-8226 leukemia, 42.7 µM; in the experiment with SF-539 CNS, 30.8 µM. The compound also had a TGI in the experiment with UACC-257 melanoma of 29.9 µM.

In the case of `COC(=O)CC[C@H](Cc1ccccc1)NC(=O)c1csc([C@@H](C[C@H](C(C)C)N(C)C(=O)[C@@H](NC(=O)[C@H]2CCCCN2C)C(C)C)OC(C)=O)n1`, the GI50 with A498 renal was 0.00406 µM; in the experiment with BT-549 breast it was 0.00275 µM; with HCC-2998 colon, 0.00386 µM; in the experiment with HS 578T breast, under 0.0025 µM; in the experiment with MALME-3M melanoma it was 7.53 µM; with RPMI-8226 leukemia it was under 0.0025 µM. The GI50 in the experiment on UACC-257 melanoma is over 25 µM. The TGI in the experiment on BT-549 breast was 0.137 µM; in the experiment on HCC-2998 colon, over 25 µM; in the experiment with HS 578T breast, over 25 µM; in the experiment with MALME-3M melanoma it was over 25 µM; in the experiment with RPMI-8226 leukemia it was over 25 µM; with UACC-257 melanoma, over 25 µM.

Consider `Cn1cc(C(=O)C[n+]2ccccc2)c2ccccc21`, for which the TGI with A498 renal was 92.4 µM; in the experiment on COLO 205 colon, over 100 µM; with HCC-2998 colon, over 100 µM; in the experiment with MALME-3M melanoma, over 100 µM; with RPMI-8226 leukemia, over 100 µM; in the experiment with SF-539 CNS, over 100 µM. The TGI with UACC-257 melanoma was over 100 µM.

Regarding `COc1ccc(OCC(=O)O)c(C(=O)CCC(=O)O)c1`, the TGI in the experiment on A498 renal, in the experiment on COLO 205 colon, in the experiment with HCC-2998 colon, with MALME-3M melanoma, in the experiment with RPMI-8226 leukemia and in the experiment with SF-539 CNS was over 100 µM each time. In the experiment on UACC-257 melanoma, this compound registered a TGI of over 100 µM.

As to `CC(C)OP(=O)(NC(=S)c1ccccc1)OC(C)C`, the TGI in the experiment on A498 renal, with COLO 205 colon, in the experiment on HCC-2998 colon, in the experiment on MALME-3M melanoma, with SF-539 CNS and in the experiment with UACC-257 melanoma was over 100 µM throughout.

Take `CC1(C)C2C=CC1C(=O)CC2` (stereo unspecified): the TGI with A498 renal, in the experiment with HCC-2998 colon, in the experiment with MALME-3M melanoma, in the experiment on RPMI-8226 leukemia, in the experiment on SF-539 CNS and in the experiment on UACC-257 melanoma was over 100 µM in each case.

Take `CC(=O)OCC1OC(n2c(-c3ccc(C)cc3)cc(-c3ccccc3)c(C#N)c2=O)C(OC(C)=O)C(OC(C)=O)C1OC(C)=O` (stereo unspecified): the TGI with COLO 205 colon, with HCC-2998 colon, with MALME-3M melanoma, in the experiment on RPMI-8226 leukemia, with SF-539 CNS and with UACC-257 melanoma was over 100 µM throughout.

For the compound `O=c1cccccc1[O-].O=c1cccccc1[O-].O=c1cccccc1[O-].[La+3]`, the GI50 in the experiment on A498 renal was 23.6 µM; in the experiment with SF-539 CNS, 5.62 µM. In addition, the TGI is 90.1 µM with A498 renal; over 100 µM in the experiment on HCC-2998 colon; 31.9 µM with MALME-3M melanoma; over 100 µM in the experiment with RPMI-8226 leukemia; 38 µM in the experiment with SF-539 CNS; 47.9 µM in the experiment on UACC-257 melanoma.
